Measurements reported in publication PMC7939384, “In crystallo screening for proline analog inhibitors of the proline cycle enzyme PYCR1” (The Journal of Biological Chemistry, 2021).
“And” between values parts separate entries of the source, which are not always exact repeats. Identical values can stand only once.

Legend:
human PYCR1 [1] = molecular target: T1, human PYCR1 (Homo sapiens, UniProt P32322); experiment: biochemical; details: for Ki: competitive with P5C, NADH fixed 175 μM; for kcat: kcat for L-P5C at fixed NADH 175 μM, global fit of the data set with this analog
T1 sequence (P32322 1-300): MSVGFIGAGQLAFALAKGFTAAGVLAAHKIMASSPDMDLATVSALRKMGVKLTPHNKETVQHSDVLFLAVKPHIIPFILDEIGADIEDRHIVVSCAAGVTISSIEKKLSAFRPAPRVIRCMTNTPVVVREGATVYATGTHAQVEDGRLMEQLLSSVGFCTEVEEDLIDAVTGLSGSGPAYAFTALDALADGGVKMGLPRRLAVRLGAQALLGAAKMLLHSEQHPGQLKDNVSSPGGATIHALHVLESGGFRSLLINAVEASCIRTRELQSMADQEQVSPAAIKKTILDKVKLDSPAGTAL
Protocol: (§1) Over two dozen proline analogs (Fig. 2) were screened using electron density from X-ray crystallography as the readout for binding to human PYCR1. […] Because the compounds bind in the P5C/proline site, the mechanism of inhibition was assumed to be competitive with P5C. Therefore, steady-state kinetic measurements were performed with L-P5C as the variable substrate (0-1000 μM) and NADH fixed (175 μM) (Fig. 3). For each compound, the data were fit globally to a competitive inhibition model (Equation 1) to obtain an inhibition constant, Ki.
B, THFA. C, CPC. D, T4C. E, T2C. F, NFLP. The data were measured in 50 mM Tris (pH 7.5) with 1 mM EDTA disodium salt while holding NADH fixed at 175 μM and varying D,L-P5C (0–2000 μM). The concentration of the substrate L-P5C was considered to be half the total D,L-P5C concentration added to the assays. Curves represent global fits of the data to a competitive inhibition model showing initial velocity in units of µM [NAD^+] s^−1 as a function of L-P5C concentration (µM).
A C-terminal truncation variant of human PYCR1, which includes residues 1–300 of the full-length 319-residue enzyme, was used for kinetics and X-ray crystallography ([18]). PYCR1 was overexpressed in Escherichia coli BL21 (DE3) competent cells and purified using methods similar to those previously reported ([18]). Harvested cells were lysed via sonication in a mixture containing DNase I, lysozyme, and 0.2 mM phenylmethylsulfonyl fluoride protease inhibitor, and then the insoluble material was removed via centrifugation at 16,000 rpm for 1 h at 4°C. The resulting lysate was purified by gravity-flow chromatography on a column containing Ni^2+–nitrilotriacetic acid resin (Qiagen) pre-equilibrated with binding buffer consisting of 50 mM HEPES, 300 mM NaCl, 10 mM imidazole, and 5% (w/v) glycerol at pH 7.8 (buffer A). The column was washed with buffer A supplemented with 30 mM imidazole, and then the bound protein was eluted with buffer A supplemented with 300 mM imidazole. Elution fractions containing PYCR1 were identified by SDS-PAGE and prepared for further purification by size-exclusion chromatography by dialyzing into 300 mM NaCl, 2% (w/v) glycerol, and 50 mM HEPES at pH 7.5. Size-exclusion chromatography was performed on a HiLoad 16/600 Superdex 200 column equilibrated with 50 mM HEPES, pH 7.8, 300 mM NaCl, and 5% (w/v) glycerol. Purified PYCR1 was concentrated to 8 mg/ml and stored at 4°C for subsequent crystallization trials.
Kinetic measurements were performed in a BioTek Epoch 2 microplate spectrophotometer using Corning 96-well UV-transparent microplates. Activity assays were performed by monitoring the consumption of NADH at 340 nm (ε340 = 6220 M^−1 cm^−1) using P5C as the substrate. D,L-P5C was synthesized as described previously ([45]), quantified using o-aminobenzaldehyde (o-AB), and stored in 1 M HCl at 4°C. Neutralization of D,L-P5C to pH 7.5 was performed immediately prior to assays using 1 M Tris (pH 7.5) and 6 M NaOH. The concentration of the substrate L-P5C was assumed to be half the total D,L-P5C concentration added to the assays.
The following microplate protocol was employed. Substrate mixtures containing P5C, NADH, EDTA, and Tris buffer were prepared in a deep well block for each P5C concentration. Mixtures containing enzyme and various concentrations of the inhibitor were prepared in microcentrifuge tubes and incubated on ice in buffer containing 50 mM HEPES pH 7.8, 300 mM NaCl, and 5% (w/v) glycerol. The final concentration of PYCR1 in the assay was 6.25 nM. Twenty μl of the enzyme-analog mixture was added to microplate wells using a single-channel pipette, and then the reaction was initiated by addition of 180 μl of the substrate mixtures using a multi-channel pipettor. The reaction traces were followed for 35 min.

human PYCR1 [2] = molecular target: T1, human PYCR1; experiment: In crystallo screening: electron density as readout for binding (crystal soaking); design: includes residues 1–300 of the full-length 319-residue enzyme; inferred from the Ni-NTA purification; made in house; host or cells: Escherichia coli BL21 (DE3); details: apo crystals soaked with 25–500 mM of the proline analog
Protocol: as §1
06594), D,L-thiazolidine-2-carboxylate (Sigma-Aldrich no. 467995), L-thiazolidine-4-carboxylate (Sigma-Aldrich no. T27502), 1,3-thiazolidine-2,4-dicarboxylate (Sigma-Aldrich no. CDS000186), dimethyl 1,3-thiazolidine-2,4-dicarboxylate (Sigma-Aldrich no. […] 287067), L-4-hydroxyproline methyl ester (hydrochloride) (Sigma-Aldrich no. 30681), cis-4-hydroxy-D-proline methyl ester (hydrochloride) (Sigma-Aldrich no. […] 441562), L-(+)-mandelic acid (Sigma-Aldrich no. 63460), sodium-L-lactate (Sigma-Aldrich no. 71718), D-cycloserine (Sigma-Aldrich no. C6880). The proline analogs were added to apo crystals during cryoprotection by soaking the crystals in the reservoir solution supplemented with cryoprotectant (PEG 200 for the PEG 3350 form; glycerol for the NaCl form) and then in the same cryobuffer supplemented with 25–500 mM of the proline analog. Following equilibration, the crystals were harvested and rapidly plunged into liquid nitrogen.
The complex of PYCR1 with THFA was obtained by soaking a C2 crystal (NaCl form) for 15 min in a cryo-buffer consisting of the reservoir solution (3 M NaCl and 0.1 M HEPES at pH 7.5–8.0) supplemented with 30% glycerol and 50 mM THFA, followed by flash-cooling in liquid nitrogen. Crystals of the NFLP complex were prepared by soaking P2_12_12 crystals in the reservoir solution (250 mM Li2SO4, 19% (w/v) PEG 3350, 0.1 M HEPES, pH 7.5) supplemented with 20% (v/v) PEG 200 and 100 mM NFLP. The complexes with L-T2C and L-T4C were prepared similarly, except the Li2SO4 concentration was reduced to 25 mM and 50 mM of either L-T4C or D,L-T2C was included.

PYCR1 = system: PYCR1; design: method as in PMID 31362921; details: reported IC50 against PYCR1; cited from earlier work
[3] = Ki, 50 mM Tris pH 7.5, global fit

Row | Compound | Ki (human PYCR1 [1]; Ki (estimated), rounded values) | Ki (human PYCR1 [1]; [3]) [µM] | kcat (human PYCR1 [1]) [s⁻¹] | electron density evidence for binding (in words) (human PYCR1 [2]) | inhibition of PYCR1 (in words) (human PYCR1 [1]) | IC50 (PYCR1) [µM]
1 | O=C(O)C1CCCC1 [CPC, cyclopentanecarboxylate] | > 1000 µM and 1000 µM | 1190 ± 61 | 35 ± 1 | – | – | –
2 | O=C(O)C1NCCS1 [L-T2C, L-thiazolidine-2-carboxylate] | ~400 µM | 438 ± 29 | 37 ± 1 | Electron density evidence for binding was observed | – | –
3 | O=C(O)[C@@H]1CSCN1 [L-T4C, L-thiazolidine-4-carboxylate] | ~600 µM | 598 ± 39 | 54 ± 2 | Electron density evidence for binding was observed | – | –
4 | CC(=O)N1CCC[C@H]1C(=O)O [N-acetyl L-proline] | – | – | – | – | did not inhibit PYCR1 | –
5 | O=C(O)[C@@H]1CCCO1 [THFA, (S)-(−)-tetrahydro-2-furoic acid] | > 1000 µM and 2000 µM | 2250 ± 121 | 69 ± 1 | Electron density evidence for binding was observed | only negligibly inhibits PYCR1 | –
6 | C#CCN(C)Cc1ccccc1 [pargyline] | – | – | – | – | – | 200
